Assay results from article PMC6450887, “Metabolic resistance of the D-peptide RD2 developed for direct elimination of amyloid-β oligomers” (Scientific Reports, 2019).
Entries after “also recorded” stand apart in the source; their conditions may differ. Non-standard residues stand in square brackets, D forms with d. Residues, ends and D or L forms follow the SMILES beside them.

How the values were obtained:
[1] = target: CYP3A4 (Homo sapiens, UniProt P08684); test: CYP isoform inhibition in human liver microsomes (Cyprotex)
CYP3A4, sequence (P08684 whole entry, canonical isoform): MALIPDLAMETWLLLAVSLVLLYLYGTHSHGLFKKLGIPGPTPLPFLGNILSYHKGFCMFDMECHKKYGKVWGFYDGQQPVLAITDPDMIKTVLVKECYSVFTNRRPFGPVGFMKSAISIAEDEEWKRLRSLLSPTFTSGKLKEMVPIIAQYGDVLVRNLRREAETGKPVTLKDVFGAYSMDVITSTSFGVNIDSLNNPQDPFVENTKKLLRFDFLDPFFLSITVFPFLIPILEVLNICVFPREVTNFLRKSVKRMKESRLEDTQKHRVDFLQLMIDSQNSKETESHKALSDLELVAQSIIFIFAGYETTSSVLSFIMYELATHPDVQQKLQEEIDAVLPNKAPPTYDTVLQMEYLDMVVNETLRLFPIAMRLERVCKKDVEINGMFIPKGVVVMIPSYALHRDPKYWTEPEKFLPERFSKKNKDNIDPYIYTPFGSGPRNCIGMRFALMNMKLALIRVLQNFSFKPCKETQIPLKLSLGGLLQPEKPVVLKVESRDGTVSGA
Protocol: (§2) The experiments were performed by Cyprotex. […] The reactions were terminated by methanol and the generated metabolites were monitored by LC-MS/MS or fluorescence. […] All assays were performed sevenfold. […] For all other substrates, the termination plates were centrifuged at 2,500 rpm and 4 °C for 30 min and aliquots of the supernatants were combined and transferred to fresh 96-well plates. Formic acid in deionized water (final concentration 0.1%) containing internal standard was added to the supernatants prior to cassette analysis by LC-MS/MS. A decrease in the formation of the metabolite compared to the vehicle control was used to calculate the IC50 values.

[2] = MTT cell viability assay; type: cell-based, rat; settings: rat, cell viability
Protocol: (§1) Rat PC12 (pheochromocytoma) cells (Leibniz Institute DSMZ, Braunschweig, Germany) were cultivated in Dulbecco’s Modified Eagle Medium (DMEM) supplemented with 10% fetal bovine serum, 5% horse serum and 1% penicillin-streptomycin. 10,000 cells per well were seeded on collagen A-coated 96-well plates (Thermo Fisher Scientific, Waltham, USA) and incubated in a 95% humidified atmosphere with 5% CO2 at 37 °C for 24 h. Samples with untreated RD2 and RD2 or HSM-3 purified from human liver microsomes (see 2.8) in 10 mM sodium phosphate buffer (pH 7.4) were prepared. Buffer without peptides and Triton X-100 (cytotoxic compound) served as controls. The samples were added to the PC12 cells in quadruple and incubated in 95% humidified atmosphere with 5% CO2 at 37 °C for 24 h. Final concentrations were 2 µM untreated RD2, purified RD2, purified HSM-3 and 0.125% Triton X-100. Cell viability was then measured using the Cell Proliferation Kit I (MTT) (Roche, Basel, Switzerland) according to the manufacturer’s instruction. The final absorbance of the formazan product was determined as the absorbance at 570 nm subtracted by the absorbance at 660 nm. All results were normalized to cells that were treated with buffer only. The experiments were performed in triplicate.

[3] = test system: Rat PC12 (pheochromocytoma) cells; test: MTT cell viability assay; type: cell-based; settings: rat, 24 h, 2 µM
Protocol: as §1

[4] = Inhibition assay: degradation of L-peptide […] with and without RD2; type: in vitro ADME; settings: 150 µM RD2 + 150 µM L-peptide; SGF, SIF 5 min; plasma, liver microsomes 30 min
Protocol: To investigate whether RD2 acts as potential inhibitor for the enzymes contained in SGF, SIF, human blood plasma and human liver microsomes, an exemplary L-peptide, […], was incubated in these media with and without RD2 and the potential inhibition of the L-peptide’s degradation was monitored. This control was intended to reveal a potential resistance of RD2 to degradation due to enzyme inhibition instead of pure degradation resistance. […] For this purpose, 150 µM of the L-peptide with or without 150 µM RD2 was incubated in SGF, SIF, human plasma and liver microsomes and both peptides were extracted from the media immediately or after 5 min (SGF, SIF) or 30 min (plasma, liver microsomes) with the method mentioned under point 2.3. Time dependent compound degradation or modification was followed by RP-HPLC (see 2.8).
For analysis of the inhibition assay with enzymes contained in SGF, SIF, plasma and liver microsomes (see 2.4), RD2, […] and remaining media components were separated using the mobile phases acetonitrile (A) and water (B) each supplemented with 0.15% TFA and a gradient from 0 to 50% solvent A in 15 min.

[5] = target: T1, CYP1A (Homo sapiens, UniProt P05177); test: CYP isoform inhibition in human liver microsomes (Cyprotex)
T1 sequence (P05177 2-516): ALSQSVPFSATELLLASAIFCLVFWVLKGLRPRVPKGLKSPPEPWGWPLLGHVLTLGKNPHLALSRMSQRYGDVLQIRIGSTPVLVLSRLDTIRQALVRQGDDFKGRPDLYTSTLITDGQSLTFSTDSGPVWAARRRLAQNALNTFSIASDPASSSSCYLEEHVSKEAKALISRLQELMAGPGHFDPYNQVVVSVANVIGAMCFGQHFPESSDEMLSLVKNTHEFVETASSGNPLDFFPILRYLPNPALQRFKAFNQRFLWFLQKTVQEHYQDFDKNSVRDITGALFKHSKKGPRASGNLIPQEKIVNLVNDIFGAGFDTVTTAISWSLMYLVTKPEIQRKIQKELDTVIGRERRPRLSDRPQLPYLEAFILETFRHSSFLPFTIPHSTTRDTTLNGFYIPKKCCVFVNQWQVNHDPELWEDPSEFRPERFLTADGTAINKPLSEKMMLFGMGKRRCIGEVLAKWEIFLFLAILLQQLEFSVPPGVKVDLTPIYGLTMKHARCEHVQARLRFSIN
Protocol: as §2

[6] = test system: cynomolguses; settings: cynomolgus monkey, in vivo, po; cited from earlier work
[7] = target: CYP2C19 (Homo sapiens, UniProt P33261); test: CYP isoform inhibition in human liver microsomes (Cyprotex)
CYP2C19, sequence (P33261 whole entry, canonical isoform): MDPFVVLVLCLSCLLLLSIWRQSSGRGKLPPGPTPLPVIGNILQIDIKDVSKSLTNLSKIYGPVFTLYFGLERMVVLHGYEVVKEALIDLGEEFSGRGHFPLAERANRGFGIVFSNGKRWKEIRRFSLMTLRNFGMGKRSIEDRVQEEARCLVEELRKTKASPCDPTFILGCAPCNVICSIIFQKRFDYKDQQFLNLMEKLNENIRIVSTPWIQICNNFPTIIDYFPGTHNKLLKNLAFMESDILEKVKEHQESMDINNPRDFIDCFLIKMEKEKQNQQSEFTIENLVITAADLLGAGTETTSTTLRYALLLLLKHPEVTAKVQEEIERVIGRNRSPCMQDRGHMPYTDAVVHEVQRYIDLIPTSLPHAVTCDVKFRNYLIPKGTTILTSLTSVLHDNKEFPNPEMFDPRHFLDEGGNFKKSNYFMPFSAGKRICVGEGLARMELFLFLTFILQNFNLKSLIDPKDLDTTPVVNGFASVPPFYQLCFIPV
Protocol: as §2

In the case of CC(C)C[C@@H](NC(=O)[C@H](NC(=O)[C@H]1CCCN1)[C@H](C)O)C(=O)N[C@H](Cc1c[nH]cn1)C(=O)N[C@@H](C(=O)N[C@H](Cc1c[nH]cn1)C(=O)N[C@H](CC(N)=O)C(=O)N[C@H](CCCNC(=N)N)C(=O)N[C@H](CCCNC(=N)N)C(=O)N[C@H](CCCNC(=N)N)C(=O)N[C@H](CCCNC(=N)N)C(=O)N[C@H](CCCNC(=N)N)C(N)=O)[C@H](C)O [RD2, ptlhthnrrrrr] (H-[dP][dT][dL][dH][dT][dH][dN][dR][dR][dR][dR][dR]-NH2), the “inhibition of CYP3A4” value ([1]; concentration range 0 to 25 µM) is reported as “did not inhibit”, the inhibition at 0.25 µM ([1]; human, human liver microsomes) is reported as -0.223% and the inhibition at 1 µM ([1]; human, human liver microsomes) is reported as 5.77%. For the same molecule, the inhibition at 2.5 µM ([1]; human, human liver microsomes) was 1.71%, the inhibition at 10 µM ([1]; human, human liver microsomes) was -3.08% and the inhibition at 25 µM ([1]; human, human liver microsomes) was -12%. The viability at 24 h, 2 µM [2] was 99 ± 4%, the cell viability [3] was 93 ± 6% and the “influence of RD2 on degradation of the L-peptide KLVFFRRRRRR” value [4] was “not influenced; also recorded: did not influence the degradation of the L-peptide in any of the media”. The “inhibition of CYP1A” value ([5]; concentration range 0 to 25 µM) was “did not inhibit”, the inhibition at 0.25 µM ([5]; human, human liver microsomes) was 6.18% and the inhibition at 1 µM ([5]; human, human liver microsomes) was 9.42%. It also gave an inhibition at 2.5 µM ([5]; human, human liver microsomes) of 1.34%, an inhibition at 10 µM ([5]; human, human liver microsomes) of -0.842% and an inhibition at 25 µM ([5]; human, human liver microsomes) of -0.198%. For the same molecule, the “toxic effects of orally administered RD2” value [6] was “does not cause toxic effects up to high doses”, the “inhibition of CYP2C19” value ([7]; concentration range 0 to 25 µM) was “did not inhibit” and the inhibition at 0.25 µM ([7]; human, human liver microsomes) was 7.64%. For the same molecule, the inhibition at 1 µM ([7]; human, human liver microsomes) was 2.47%, the inhibition at 2.5 µM ([7]; human, human liver microsomes) was 2.54% and the inhibition at 10 µM ([7]; human, human liver microsomes) was -5.77%. It also gave an inhibition at 25 µM ([7]; human, human liver microsomes) of -45.5%.
